Measured values published in patent publication US20140017336A1, “CO-ADMINISTRATION OF ARSENIC COMPOUNDS AND ANTI-HERPES VIRUS ANTI-VIRALS” (priority 2011, published 2014).

Experiments:
[1] = test system: LMP1 dependent upregulation of PML NBs; test: Transfection/inhibitor studies of LMP1 upregulation of PML NBs; type: cell-based
Protocol: A series of transfection/inhibitor studies were carried out to investigate the mechanism of upregulation of the PML-NB by LMP1. […] Either inhibition of ERK phosphorylation by U0126 or Stat3 dimerization by Stattic, however, prevented the LMP1 dependent upregulation of PML NBs.

[2] = test system: CNE1<EBV BX1> tumors; test: CNE1<EBV BX1> nasopharyngeal carcinoma xenograft, tumor volume; type: in vivo, male nude mice; conditions: 21 days of once daily treatment; GCV 100 μg/g, ATO 100 ng/g; carrier control just under double
[3] = test system: EBV Zta mRNA; type: cell-based, Epstein-Barr virus
[4] = test system: EBV BMRF1 mRNA; type: cell-based, Epstein-Barr virus; conditions: 10 nM ATO and/or 40 μM GCV
[5] = test system: uninfected parental A549 cells; conditions: 4 days, 10 nM ATO, 40 μM GCV
[6] = test system: EBV Zta protein; type: in vivo, male nude mice; conditions: mouse, in vivo
[7] = test system: LCL<EBV1-13> cells; type: cell-based, human
[8] = test system: nonmalignant blood mononuclear cells from normal donors; conditions: cited from earlier work
[9] = test system: APL and non-APL cell lines; conditions: Konig et al., 1997; cited from earlier work

With `Cc1ccc(NCCCc2ccccc2)c(N)c1` [JSH23] the “effect on LMP1 upregulation of PML NBs” value [1] was “did not affect”.
For `N#CC(=C(/N)Sc1ccccc1N)/C(C#N)=C(\N)Sc1ccccc1N` [U0126], the “effect on LMP1 upregulation of PML NBs” value [1] was “prevented”.
In the case of `Nc1nc2c(ncn2COC(CO)CO)c(=O)[nH]1` [GCV, 9-[[2-hydroxy-1-(hydroxymethyl)-ethoxy]methyl]guanine], the “tumor size increase over size at day 7 (pre-treatment)” value [2] is reported as “approximately 25%”, the “Zta mRNA expression over 7 days” value [3] is reported as “no effect” and the “BMRF1 mRNA expression over 7 days” value [4] is reported as “no effect”. For the same compound, the “viability of uninfected parental cells” value [5] was “did not affect the viability”, the “Zta expression in tumor explant tissue” value [6] was “Only the occasional Zta positive cell” and the “viable cells after a third day of treatment compared with two days” value [7] was “did not result in reducing the number of viable cells”.
In the case of `C[As](C)SC[C@H](NC(=O)CC[C@H](N)C(=O)O)C(=O)NCC(=O)O` [SGLU1, S-(dimethylarsino) glutathione], the “toxicity against nonmalignant blood mononuclear cells” value [8] is listed as “low toxicity”.
For `O=[N+]([O-])c1ccc2c(c1)S(=O)(=O)C=C2` [Stattic], the “effect on LMP1 upregulation of PML NBs” value [1] was “prevented”.
For `Nc1nc(N)nc(Nc2ccc([As]3SCC(CO)S3)cc2)n1` (centres unmarked) [Melarsoprol, melarsoprol], the “activity against APL and non-APL cell lines” value [9] is given as “at least equivalent to that of arsenic trioxide”.
